What all share (conditions): 24 h
Experiment [1] concerns U2OS. In words: nuclei count in HPG assay relative to DMSO (% of DMSO); higher = more viable cells. How it is done: (§1)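 Validation screen in U2OS cells: hits tested at 1, 3 and 10 uM for 24 h in duplicate plates. Translation was read by OPP incorporation (1 h pulse) and HPG incorporation (30 min in methionine-free medium), quantified by high-throughput microscopy alongside nuclei counts. All values are normalised to DMSO (= 100).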

The test system of experiment [2] is U2OS. In words: mean OPP incorporation (global translation) relative to DMSO (% of DMSO); higher = more protein synthesis. The protocol: as §1
The subject of experiment [3] is U2OS. In words: mean HPG incorporation (global translation) relative to DMSO (% of DMSO); higher = more protein synthesis. The protocol: as §1
In experiment [4] the test system is U2OS. Nature of the experiment: nuclei count in OPP assay relative to DMSO (% of DMSO); higher = more viable cells. The protocol:
as §1

SMILES strings stand for the structures. Where a name gives a salt, the structure may show the parent alone.

In the case of `O=c1cc(N2CCOCC2)oc2c(-c3cccc4c3sc3ccccc34)cccc12`, the “nuclei count in HPG assay” value is 96.8 in the experiment with U2OS [1] (1 µM), 89.5 with U2OS [1] (3 µM) and 79.6 in the experiment with U2OS [1] (10 µM). The “mean OPP incorporation” value with U2OS [2] (1 µM) was determined as 92.6; with U2OS [2] (3 µM), 107; with U2OS [2] (10 µM), 104. The “mean HPG incorporation” value with U2OS [3] (1 µM) amounted to 66.7; in the experiment on U2OS [3] (3 µM), 74.8; with U2OS [3] (10 µM), 61.8. Besides, the “nuclei count in OPP assay” value stood at 97.4 in the experiment with U2OS [4] (1 µM), 87.4 with U2OS [4] (3 µM) and 89.1 with U2OS [4] (10 µM).

`Cc1ccc(NC(=O)c2ccc(CN3CCN(C)CC3)cc2)cc1Nc1nccc(-c2cccnc2)n1` [Imatinib (STI571)]: the results for the “nuclei count in HPG assay” value in the experiment on U2OS [1] (1 µM), with U2OS [1] (3 µM) and in the experiment on U2OS [1] (10 µM) were 102, 97.7 and 92.4, respectively. Besides, the “mean OPP incorporation” value in the experiment with U2OS [2] (1 µM) was 113; in the experiment on U2OS [2] (3 µM), 122; with U2OS [2] (10 µM) it was 131. Moreover, the figures for the “mean HPG incorporation” value in the experiment on U2OS [3] (1 µM), in the experiment on U2OS [3] (3 µM) and in the experiment with U2OS [3] (10 µM) were 91.5, 111 and 121, respectively. Also, the results for the “nuclei count in OPP assay” value in the experiment with U2OS [4] (1 µM), in the experiment with U2OS [4] (3 µM) and in the experiment on U2OS [4] (10 µM) were 97.6, 97.7 and 95.9, respectively.

For `CC[C@@H]1/C=C(\C)C[C@H](C)C[C@H](OC)[C@H]2O[C@@](O)(C(=O)C(=O)N3CCCC[C@H]3C(=O)O[C@H](/C(C)=C/[C@@H]3CC[C@H](Cl)[C@H](OC)C3)[C@H](C)[C@@H](O)CC1=O)[C@H](C)C[C@@H]2OC` [Pimecrolimus], the “nuclei count in HPG assay” value worked out at 103 with U2OS [1] (1 µM), 101 with U2OS [1] (3 µM) and 92.5 with U2OS [1] (10 µM). Further, the “mean OPP incorporation” value in the experiment on U2OS [2] (1 µM) was determined as 125; in the experiment with U2OS [2] (3 µM), 123; in the experiment with U2OS [2] (10 µM), 124. Further, the “mean HPG incorporation” value in the experiment on U2OS [3] (1 µM) was found to be 108; with U2OS [3] (3 µM), 113; in the experiment on U2OS [3] (10 µM), 99.6. Also, the “nuclei count in OPP assay” value with U2OS [4] (1 µM) was determined as 101; in the experiment on U2OS [4] (3 µM), 106; in the experiment with U2OS [4] (10 µM) it was 95.5.

Turning to `Cc1c(C)c2c(c(C)c1O)CC[C@](C)(CN1CCN(c3cc(N4CCCC4)nc(N4CCCC4)n3)CC1)O2`, the “nuclei count in HPG assay” value was determined as 94.9 with U2OS [1] (1 µM), 102 in the experiment with U2OS [1] (3 µM) and 98 with U2OS [1] (10 µM). For the same compound, the “mean OPP incorporation” value stood at 98.2 in the experiment on U2OS [2] (1 µM), 97.2 with U2OS [2] (3 µM) and 111 with U2OS [2] (10 µM). Also, the figures for the “mean HPG incorporation” value with U2OS [3] (1 µM), in the experiment on U2OS [3] (3 µM) and with U2OS [3] (10 µM) were 90.2, 93.4 and 87.1, respectively. Further, the “nuclei count in OPP assay” value stood at 95.4 in the experiment with U2OS [4] (1 µM), 101 in the experiment with U2OS [4] (3 µM) and 102 with U2OS [4] (10 µM).

Consider `O=[N+]([O-])c1ccccc1S(=O)(=O)NCC1CCC(CNCC2CCc3ccccc3C2)CC1` (centres undefined) [NTNCB hydrochloride], for which the figures for the “nuclei count in HPG assay” value in the experiment with U2OS [1] (1 µM), with U2OS [1] (3 µM) and with U2OS [1] (10 µM) were 95.8, 90.7 and 87.6, respectively. The entries for the “mean OPP incorporation” value in the experiment on U2OS [2] (1 µM), in the experiment on U2OS [2] (3 µM) and in the experiment on U2OS [2] (10 µM) were 106, 115 and 110, respectively. The “mean HPG incorporation” value in the experiment on U2OS [3] (1 µM) was determined as 98; in the experiment with U2OS [3] (3 µM) it was 104; in the experiment on U2OS [3] (10 µM) it was 56.8. Also, the “nuclei count in OPP assay” value stood at 101 with U2OS [4] (1 µM), 98.3 in the experiment with U2OS [4] (3 µM) and 74.4 in the experiment with U2OS [4] (10 µM).

With `CCC(=O)CCCCC[C@@H]1NC(=O)[C@H]2CCCCN2C(=O)[C@H]([C@@H](C)CC)NC(=O)[C@H](Cc2cn(OC)c3ccccc23)NC1=O` [Apicidin], the “nuclei count in HPG assay” value with U2OS [1] (1 µM) was determined as 108; in the experiment with U2OS [1] (3 µM) it was 96.3; in the experiment on U2OS [1] (10 µM), 88. The “mean OPP incorporation” value in the experiment with U2OS [2] (1 µM) stood at 92.2; in the experiment on U2OS [2] (3 µM) it was 83.9; with U2OS [2] (10 µM), 55.8. The “mean HPG incorporation” value in the experiment on U2OS [3] (1 µM) is 132; in the experiment on U2OS [3] (3 µM), 135; with U2OS [3] (10 µM), 85. The “nuclei count in OPP assay” value in the experiment on U2OS [4] (1 µM) turned out to be 106; in the experiment with U2OS [4] (3 µM), 95.4; in the experiment on U2OS [4] (10 µM), 91.7.

Regarding `COc1nc(-c2ccc3c(c2)OCO3)n(-c2ccc(NC(=O)CSc3ccccc3)cc2)n1` [SecinH3], the “nuclei count in HPG assay” value in the experiment with U2OS [1] (1 µM) was 107; with U2OS [1] (3 µM) it was 96.8; in the experiment with U2OS [1] (10 µM), 100. Besides, the “mean OPP incorporation” value with U2OS [2] (1 µM) came out at 106; in the experiment with U2OS [2] (3 µM), 117; in the experiment on U2OS [2] (10 µM) it was 121. In addition, the “mean HPG incorporation” value in the experiment with U2OS [3] (1 µM) is 107; in the experiment with U2OS [3] (3 µM), 100; in the experiment with U2OS [3] (10 µM), 93.3. The “nuclei count in OPP assay” value in the experiment with U2OS [4] (1 µM) was determined as 105; with U2OS [4] (3 µM), 105; in the experiment on U2OS [4] (10 µM) it was 98.9.

For the origin of these results see the supplement of paper PMC8183993.
